Assay results as given in patent US5597809A, “Treatment of optic neuritis” (priority 1994, dated 1997).
“Also recorded” adds a separate entry of the source. Read-outs that look alike come from different tables or passages of the source.

Key:
retinal ganglion cells [1] = assay: Toxicity of other drugs to retinal ganglion cells and prevention by MK801 (FIG. 8); assay type: cell-based
Experimental: FIG. 8 is a bar graph showing prevention of drug toxicity by the protective agent, MK801. […] Retinal ganglion cells were incubated for 24 hours with either drug alone (5-fluorouracil (5-FU), Defororixamine, and Tamoxifenor drug +MK801, followed by measurement of cell viability.
As discussed above, other drugs are known to cause optic neuropathy (see Table 13). However, the mechanism of drug toxicity has not been defined. Experiments were carried out to determine whether NMDA antagonists prevented retinal cell damage induced by such drugs. […] The cytotoxic effect of these drugs on retinal ganglion cells was prevented by the NMDA antagonist, MK801.

retinal ganglion cells [2] = assay: Attenuation of ethambutol toxicity by NMDA antagonists and a calcium channel blocker (retinal ganglion cell viability, FIG. 3); settings: for retinal ganglion cell viability, drug alone: no ethambutol; for protection of retinal ganglion cells from ethambutol-mediated toxicity: 24 hours
[3] = tested on: M. tuberculosis and M. avium isolates; assay: Minimal inhibitory concentration of ethambutol by radiometric Bactec technique with and without protective agents; assay type: cell-based, Mycobacterium tuberculosis; Mycobacterium avium
[4] = cited from earlier work
retinal ganglion cells [5] = settings: 10 μM ethambutol, within 24 hours
retinal ganglion cells [6] = assay: cells; settings: Rattus norvegicus, 24 h, read-out: half maximal effect of ethambutol toxicity to retinal ganglion cells, 24 hours incubation; viability by fluorescein diacetate
retinal ganglion cells [7] = assay: Fura-2 intracellular calcium in retinal ganglion cells (response to NMDA and ethambutol); assay type: cell-based, rat; settings: for effect on intracellular calcium, ethambutol alone: 10 μM ethambutol; for greater rise in intracellular calcium with ethambutol + NMDA than with NMDA alone: 10 μM ethambutol + 100 μM NMDA
Experimental: FIG. 6 is a bar graph showing the effect of ethambutol and Zn^2+ on the cellular response to NMDA. Dissociated retinal ganglion cells were labeled with the calcium sensitive dye, fura-2. 100 μM NMDA were then applied by puffer, and the peak intracellular calcium concentration measured (peak response occurred between 10 and 70 seconds after NMDA exposure for all cells). The indicated drugs were then applied in the following concentrations: 10 μM ethambutol (Eth) or 100 μM Zn^2+. Values are means ± standard deviations. Ethambutol + NMDA led to a 20% greater rise in intracellular calcium then NMDA alone. (*) indicates statistical difference by an analysis of variance (ANOVA) followed Scheffe multiple comparison of means, P<0.01. Ethambutol, NMDA, and Zn^2+ simultaneously led to the same rise seen with NMDA alone. Ethambutol alone or in combination with Zn^2+ had no effect under these conditions.
(§1) Neuronal intracellular free Ca^2+ concentration ([Ca^2+ ]i) was analyzed with fura-2 acetoxymethyl ester (fura 2-AM; Molecular Probes) following procedures known in the art. DiI labeled retinal ganglion cells were subsequently labeled with fura-2. Agonists (NMDA-glycine, glutamate, etc.) were applied by pneumatic pipettes (aperture […], 3-6 psi) placed 10-20 μm from the cells of interest. Data were analyzed via the Metamorph software package (Image 1).
There are several possible explanations for the finding that ethambutol toxicity to retinal ganglion cells is mediated through the NMDA receptor. A primary effect of NMDA is its known ability to increase intracellular calcium in neurons; this effect was monitored via the fluorescent dye, fura 2. Accordingly, dissociated retinal ganglion cells were labeled with fura-2. Ethambutol in concentrations from 1 nM to 1 mM was puffed onto retinal ganglion cells for periods of up to five minutes. No change was detected in 25 of 25 cells examined. As a control, 100 μM NMDA was subsequently puffed onto these cells, and in 23 of 25 cells the intracellular calcium rose to […] or higher.
Since a rise in intracellular calcium is one of the neuron's first responses to exogenously applied glutamate or NMDA, the following experiment was performed to detect changes in intracellular calcium. Dissociated retinal ganglion cells were labeled with the calcium sensitive dye, fura 2. Fura 2 allows for measurement of cytosolic calcium concentrations.
100 μM NMDA was applied to individual retinal ganglion cells, and the rise in intracellular calcium measured. The cells were then allowed to recover, and the intracellular calcium returned to baseline. 10 μM ethambutol and 100 μM NMDA were then simultaneously applied to the same cell (FIG. 6, second bar).
As a second experiment, 100 μM Zn^2+ chloride was added to the ethambutol/NMDA puffer. In the presence of 100 μM Zn^2+, 100 μM NMDA plus 10 μM ethambutol led to a rise in intracellular calcium that was indistinguishable from NMDA alone (FIG. 6, third bar). […] Accordingly, exogenous Zn^2+ reduced the NMDA/ethambutol response to the baseline NMDA response.

in vitro = settings: rat, retinal ganglion cells
retinal cultures = assay: Endogenous glutamate in retinal cultures by HPLC; assay type: cell-based, rat; settings: overnight incubation with ethambutol
Experimental: The role of endogenous glutamate in ethambutol toxicity was evaluated. Endogenous glutamate in retinal cultures was 26±2 μM (mean ±standard deviation, n=12) (as measured by high pressure liquid chromatography).
This level of endogenous glutamate was not affected by overnight incubation with ethambutol. […] Nevertheless, experiments were carried out to determine whether endogenous glutamate was required for the expression of ethambutol toxicity in these preparations. […] The endogenous glutamate was specifically degraded by the addition of the enzyme glutamate-pyruvate transaminase (GPT) in the presence of the cosubstrate pyruvate.

[8] = tested on: retinal ganglion cell layer; assay: In vivo toxicity of ethambutol to the retina; settings: 100 mg/kg daily, orally, 30 days
[9] = tested on: all other cells of the retinal dissociations; assay: Viability of the other cell types in dissociated retinal preparations exposed to ethambutol; assay type: cell-based, rat; settings: increasing concentrations, 24 hours
Experimental: FIG. 1 is a line graph showing dose-dependent toxicity of ethambutol to retinal ganglion cells in vitro. Dissociated rodent retinal ganglion cells were incubated with increasing concentrations of ethambutol for 24 hours. The ability of cells to take up and cleave fluorescein diacetate was used as an index of their viability and lack of injury. […] Retinal ganglion cells (open circles) and all other cells (open squares) were scored separately for viability. […] (*) indicates statistical difference by an analysis of variance (ANOVA) followed by Scheffe multiple comparison of means, P<0.01. Values were normalized to control (n=1) and represent the means ± standard deviations of four experiments; at least 150 retinal ganglion cells scored for control values in each experiment.
Initial experiments were carried out in vitro. Freshly dissociated rat retinal preparations were exposed to increasing concentrations of ethambutol. […] Retinal cells were incubated in the presence of increasing concentrations of ethambutol, and scored for viability at 24 hours. Retinal ganglion cells were identified by the presence of DiI fluorescence.
Viability was assayed by uptake and cleavage of a second fluorescent dye, fluorescein diacetate. Ethambutol toxicity was detected only in retinal ganglion cells (FIG. 1, open circles). […]

[10] = tested on: NMDA-evoked [Ca2+]i responses; assay: Digital calcium imaging of NMDA-evoked [Ca2+]i responses; assay type: cell-based; settings: 6 μM memantine, 200 μM NMDA
Experimental: It has now been discovered that memantine inhibits NMDA-evoked [Ca^2+ ]i responses. […] In fact, [Ca^2+ ]i rose only to levels associated with a low degree of NMDA receptor stimulation in the presence of memantine.
as §1

NMDA receptor = settings: at the resting potential; cited from earlier work

O=c1[nH]cc(F)c(=O)[nH]1 [5-FU, 5-fluorouracil]
toxicity to retinal ganglion cells (retinal ganglion cells [1]): toxic to retinal ganglion cells

NC(CCCP(=O)(O)O)C(=O)O (stereo not drawn) [APV, 2-amino-5-phosphonovalerate]
retinal ganglion cell viability, drug alone (retinal ganglion cells [2]; 100 μM drug): did not affect cell viability

N#Cc1cc2nc(O)c(O)nc2cc1[N+](=O)[O-] [CNQX, 6-cyano-7-nitroquinoxaline-2,3-dione]
protection of retinal ganglion cells from ethambutol-mediated toxicity (retinal ganglion cells [2]; 100 μM drug with 10 μM ethambutol): ineffective at preventing ethambutol-mediated cell death | retinal ganglion cell viability, drug alone (retinal ganglion cells [2]; 100 μM drug): did not affect cell viability

CC(=O)N(O)CCCCCNC(=O)CCC(=O)N(O)CCCCCNC(=O)CCC(=O)N(O)CCCCCN [Defororixamine, deferoxamine]
toxicity to retinal ganglion cells (retinal ganglion cells [1]): toxic to retinal ganglion cells

C[C@]12N[C@H](Cc3ccccc31)c1ccccc12 [MK-801, dizocilpine]
effect on the concentration of ethambutol necessary to kill mycobacterial strains ([3]; 12 μM agent): had no effect | protection of retinal ganglion cells from ethambutol-mediated toxicity (retinal ganglion cells [2]; 12 μM drug with 10 μM ethambutol): do protect retinal ganglion cells from ethambutol induced injury; also recorded: protect retinal ganglion cells from ethambutol-mediated toxicity | retinal ganglion cell viability, drug alone (retinal ganglion cells [2]; 12 μM drug): did not affect cell viability | effect on the cytotoxic effect of 5-FU, Defororixamine and Tamoxifen on retinal ganglion cells (retinal ganglion cells [1]; drug + MK801, 24 hours): prevented

CC/C(=C(\c1ccccc1)c1ccc(OCCN(C)C)cc1)c1ccccc1 [Tamoxifen]
toxicity to retinal ganglion cells (retinal ganglion cells [1]; drug alone, 24 hours): toxic to retinal ganglion cells

CC[C@@H](CO)NCCN[C@@H](CC)CO [ethambutol]
patients developing optic neuropathy ([4]; patients taking ethambutol): up to 15% | patients with permanent visual loss ([4]; patients taking ethambutol): up to 3% | concentration ([4]; read-out: concentration in the cerebrospinal fluid, patients taking the drug orally): 10 µM | retinal ganglion cells that died compared to sibling control cultures (retinal ganglion cells [5]): Approximately half | EC50 (retinal ganglion cells [6]): 10 µM | change in intracellular calcium, ethambutol alone (retinal ganglion cells [7]; 1 nM to 1 mM puffed for up to five minutes, 25 of 25 cells): No change | effect on intracellular calcium, ethambutol alone (retinal ganglion cells [7]): had no effect on intracellular calcium | greater rise in intracellular calcium with ethambutol + NMDA than with NMDA alone (retinal ganglion cells [7]): ≥ 20% | greater rise in intracellular calcium with ethambutol + NMDA than with NMDA alone (retinal ganglion cells [7]; listed as Ethambutol): 20% | effect on intracellular calcium, ethambutol alone (retinal ganglion cells [7]; listed as Ethambutol): had no effect | cytotoxicity at 24 h, 10 µM (in vitro): ≥ 50% | effect on the level of endogenous glutamate (retinal cultures): not affected | loss of cells in the retinal ganglion cell layer versus control [8]: 18% | other ocular pathology [8]: no other ocular pathology was detected | ethambutol toxicity in other cell types [9]: No ethambutol toxicity

CC12CC3CC(C)(C1)CC(N)(C3)C2.Cl [memantine, 1-amino-3,5-dimethyladamantane hydrochloride]
effect on the concentration of ethambutol necessary to kill mycobacterial strains ([3]; 12 μM agent): had no effect | protection of retinal ganglion cells from ethambutol-mediated toxicity (retinal ganglion cells [2]; 12 μM drug with 10 μM ethambutol, hydrochloride): do protect retinal ganglion cells from ethambutol induced injury; also recorded: protect retinal ganglion cells from ethambutol-mediated toxicity | retinal ganglion cell viability, drug alone (retinal ganglion cells [2]; 12 μM drug): did not affect cell viability | effect on excessive influx of calcium elicited by NMDA [10]: largely prevent | Ki (NMDA receptor): 1 to 2 µM

COCCOC(=O)C1=C(C)NC(C)=C(C(=O)OC(C)C)C1c1cccc([N+](=O)[O-])c1 (stereo not drawn) [nimodipine]
effect on the concentration of ethambutol necessary to kill mycobacterial strains ([3]; 100 nM agent): had no effect | protection of retinal ganglion cells from ethambutol-mediated toxicity (retinal ganglion cells [2]; 100 nM drug with 10 μM ethambutol): do protect retinal ganglion cells from ethambutol induced injury; also recorded: protect retinal ganglion cells from ethambutol-mediated toxicity | retinal ganglion cell viability, drug alone (retinal ganglion cells [2]; 100 nM drug): did not affect cell viability
